# Tests used:
# [1] = target: EPHB3 (Homo sapiens, UniProt P54753); assay: Dose-response analysis on 10-well kinase microarray; assay type: biochemical; settings: different inhibitor concentration in each well; substrate MBP, histone and casein
# Experimental: (§1) The wash solution is then discarded.
# Microarrays were prepared with 10 wells/slide, wherein the kinases EPHB3, FYN, and PRKCD and their substrate were immobilized in each well. The slide was coated with substrate essentially as described in Example I. Subsequently, a gasket with 10 openings was applied to the surface of the slide thereby creating 10 wells, i.e., the gasket provides the barriers between the wells. The accession numbers for the different kinases in the NCBI database are: for FYN: NM_002037; for PRKCD: NM_006254; and for EPHB3: NM_004443.
# [2] = target: PRKCD (Homo sapiens, UniProt Q05655); assay: as above; assay type: biochemical; settings: different inhibitor concentration in each well; substrate MBP, histone and casein
# Experimental: as §1
# (§2) Microarrays were prepared with 10 wells/slide, wherein the kinases EPHB3, FYN, and PRKCD and their substrate were immobilized in each well.
# [3] = test system: 39 kinases (Table 4); assay: Global specificity profiling experiment, single point inhibition on kinase microarray; assay type: biochemical; settings: substrates histone, casein, MBP, polyEY, control 2% DMSO
# Experimental: as §1
# To assess the application of microarray assays for compound profiling, seven known inhibitors (see Table of inhibitors used in global specificity profiling experiment) and one control (2% DMSO) were tested on microarrays deposited with a group of kinases (as well as positive and negative controls). The method of Example I was used. Twelve spots of each kinase or control were deposited on each array, and three arrays were used for each inhibitor. A mixture of generic kinase substrates (histone, casein, MBP, and polyEY) was used in the assay. The average of all signals from the same inhibitor or control experiment was calculated.
# . The general specificities observed were consistent with the known general specificities for these inhibitors, which are listed in Table 3.
# [4] = test system: tyrosine kinases; assay: Inhibitor specificity profiling on kinase microarray (fifty kinases, gamma-AT33P); settings: inhibitor 100 μm; substrate mixture of MBP, histone and casein
# Experimental: To coat slides with kinase substrate, the substrates are diluted to 10 ng/μL in 1×PBS and 180-200 μL of substrate solution are pipetted onto one slide, e.g., a glass slide, aldehyde treated slides (TeleChem International, Inc.), nitrocellulose-coated slides (Schleicher & Schuell), slides with an amino-silane surface (Corning). A second slide is then placed on top of the first slide so that the sides to be deposited with kinases face each other. Care should be taken that the liquid covers the entire slide and that there are no air bubbles. The slides are placed in a 50 mL conical tube, making sure they are laying flat and incubated at 4° C. for one hour to several days.
# Subsequently, approximately 100 mL of PBST are added to the dish. The slides are then washed for one hour at 4° C. with shaking. The PBST is then discarded and the slides are gently rinsed with dH2O using a squirt bottle. After rinsing, the slides are placed into a slide boxes and centrifuged at 4000 rpm for one minute. The slides are then stored at 4° C. until printing with kinase.
# 1 mL of kinase assay buffer for every 12 glass slides to be probed is prepared. 6 μL of gamma-AT^33P (10 μCi/μL) are added to the assay buffer. The slides are placed in 50 mL conical tubes, laying flat, proteins facing up. 70 μL to 150 μL of the kinase assay buffer with gamma-AT^33P are added onto each slide. […]
# [5] = target: T1, FYN (Homo sapiens, UniProt P06241); assay: Dose-response analysis on 10-well kinase microarray; assay type: biochemical; settings: different inhibitor concentration in each well; substrate MBP, histone and casein
# Experimental: as §1, §2
# [6] = target: T1, FYN; assay: Global specificity profiling experiment, single point inhibition on kinase microarray; assay type: biochemical; settings: substrates histone, casein, MBP, polyEY
# Experimental: as §1
# A mixture of generic kinase substrates (histone, casein, MBP, and polyEY) was used in the assay. The average of all signals from the same inhibitor or control experiment was calculated.
# To expedite data analysis regarding the kinase families that are inhibited by a particular […], a graphical representation can be constructed of inhibition data for substrates in such a manner that phylogenetically related kinases can be spatially arranged on the graphical representation.
# EPHB3, sequence (P54753 34-998): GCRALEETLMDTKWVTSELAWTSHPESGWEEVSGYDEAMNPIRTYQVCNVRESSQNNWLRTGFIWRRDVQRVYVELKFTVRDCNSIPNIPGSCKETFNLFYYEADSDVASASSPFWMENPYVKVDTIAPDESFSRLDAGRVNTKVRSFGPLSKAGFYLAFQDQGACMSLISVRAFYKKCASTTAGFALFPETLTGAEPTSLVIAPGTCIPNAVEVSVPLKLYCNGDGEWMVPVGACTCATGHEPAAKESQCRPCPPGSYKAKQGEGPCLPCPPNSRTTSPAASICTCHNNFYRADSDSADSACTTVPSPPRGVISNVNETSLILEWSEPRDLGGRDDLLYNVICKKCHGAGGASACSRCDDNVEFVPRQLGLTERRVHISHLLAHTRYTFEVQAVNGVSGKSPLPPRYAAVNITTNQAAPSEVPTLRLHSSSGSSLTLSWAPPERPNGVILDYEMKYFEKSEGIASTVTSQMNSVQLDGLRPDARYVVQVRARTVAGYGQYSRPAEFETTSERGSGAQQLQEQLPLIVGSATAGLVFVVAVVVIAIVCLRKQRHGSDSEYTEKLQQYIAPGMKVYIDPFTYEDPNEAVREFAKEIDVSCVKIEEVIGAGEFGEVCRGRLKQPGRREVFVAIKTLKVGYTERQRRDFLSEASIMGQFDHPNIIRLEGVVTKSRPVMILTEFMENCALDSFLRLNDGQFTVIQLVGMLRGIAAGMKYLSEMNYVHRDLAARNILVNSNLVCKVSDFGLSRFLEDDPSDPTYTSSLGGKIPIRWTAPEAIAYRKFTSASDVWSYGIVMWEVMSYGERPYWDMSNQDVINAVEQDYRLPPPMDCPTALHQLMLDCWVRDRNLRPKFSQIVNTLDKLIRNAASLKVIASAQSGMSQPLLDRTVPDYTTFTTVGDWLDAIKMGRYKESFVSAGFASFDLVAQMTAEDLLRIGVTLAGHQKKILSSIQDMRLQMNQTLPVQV
# T1 sequence (P06241 whole entry): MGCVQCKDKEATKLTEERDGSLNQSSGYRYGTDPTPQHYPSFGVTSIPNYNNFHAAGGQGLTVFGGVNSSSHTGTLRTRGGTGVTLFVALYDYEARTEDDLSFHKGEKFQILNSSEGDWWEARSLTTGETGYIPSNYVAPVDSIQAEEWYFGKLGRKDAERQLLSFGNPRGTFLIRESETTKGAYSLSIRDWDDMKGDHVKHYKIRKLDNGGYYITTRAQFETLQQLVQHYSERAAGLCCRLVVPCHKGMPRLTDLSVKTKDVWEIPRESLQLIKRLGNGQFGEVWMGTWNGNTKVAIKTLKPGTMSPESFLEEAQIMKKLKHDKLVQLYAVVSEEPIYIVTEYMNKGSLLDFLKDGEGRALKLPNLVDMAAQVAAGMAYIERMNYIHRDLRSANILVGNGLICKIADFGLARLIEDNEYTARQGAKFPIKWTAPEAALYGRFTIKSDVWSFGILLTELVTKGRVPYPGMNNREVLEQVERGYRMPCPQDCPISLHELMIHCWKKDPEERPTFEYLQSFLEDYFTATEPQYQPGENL
# PRKCD, sequence (Q05655 whole entry): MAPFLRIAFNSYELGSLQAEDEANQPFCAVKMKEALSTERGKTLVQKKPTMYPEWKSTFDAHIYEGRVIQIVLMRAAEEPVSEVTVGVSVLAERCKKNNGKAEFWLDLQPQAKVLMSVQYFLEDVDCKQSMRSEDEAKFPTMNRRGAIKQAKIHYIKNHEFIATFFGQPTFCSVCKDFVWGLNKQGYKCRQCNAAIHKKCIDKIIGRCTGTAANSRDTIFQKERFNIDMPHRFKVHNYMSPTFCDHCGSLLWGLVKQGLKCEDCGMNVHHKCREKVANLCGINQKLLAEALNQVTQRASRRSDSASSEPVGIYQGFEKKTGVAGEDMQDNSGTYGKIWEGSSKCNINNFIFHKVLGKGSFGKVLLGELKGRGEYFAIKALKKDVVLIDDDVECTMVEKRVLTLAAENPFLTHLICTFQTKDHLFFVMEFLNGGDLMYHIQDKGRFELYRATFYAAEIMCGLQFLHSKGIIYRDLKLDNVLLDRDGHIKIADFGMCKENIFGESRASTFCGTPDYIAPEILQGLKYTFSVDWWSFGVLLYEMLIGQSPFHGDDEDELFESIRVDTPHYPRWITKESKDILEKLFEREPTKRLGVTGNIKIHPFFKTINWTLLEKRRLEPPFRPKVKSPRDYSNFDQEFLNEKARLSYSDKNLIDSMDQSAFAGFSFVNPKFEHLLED
inhibition of PRKCD (dose-response) [2],inhibition of tyrosine kinases [4],Compound,inhibition of EPHB3 (dose-response) [1],specificity observed in global profiling (percentage-of-inhibition data) [3],inhibition of FYN (dose-response) [5],inhibition of FYN in global profiling [6]
not,strongly inhibited,CC(C)(C)n1nc(-c2ccc(Cl)cc2)c2c(N)ncnc21 [PP2],strongly inhibits,primarily inhibited tyrosine kinases,,
,,Cn1cc(C2=C(c3cn(CCCSC(=N)N)c4ccccc34)C(=O)NC2=O)c2ccccc21 [Ro-31-8220],,more specifically targeted the serine-threonine kinases,,
,,CN[C@@H]1C[C@H]2O[C@@](C)([C@@H]1OC)n1c3ccccc3c3c4c(c5c6ccccc6n2c5c31)C(=O)NC4 [Staurosporine],not,broad spectrum of kinases inhibited,strongly inhibits,inhibited
